From PubChem BioAssay (NCI)
Several values for one entry are separate records, joined by “and”; a condition that tells them apart may be missing. Equal entries are not always repeated.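 A five-concentration, 48-hour dose response in 96-well plates underlies each endpoint, interpolated linearly between surrounding concentrations. GI50: concentration for 50% inhibition of growth. Definition used: TGI = concentration required for complete inhibition of growth.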

Assays:
Assay in all cases: NCI-60 cell line screen, 48 h
[1] = system: A549 NSCLC
[2] = system: ACHN renal
[3] = system: MDA-MB-435
[4] = system: OVCAR-4 ovarian
[5] = system: SNB-19 CNS
[6] = system: SW-620 colon
[7] = system: T-47D breast
[8] = system: UACC-257 melanoma
[9] = system: HCC-2998 colon
[10] = system: HL-60(TB) leukemia

SMILES | TGI [1] | TGI [2] | TGI [3] | TGI [4] [µM] | TGI [5] | TGI [6] | TGI [7] | TGI [8] | TGI [9] | TGI [10] [µM] | GI50 [2] | GI50 [3] [µM] | GI50 [5] | GI50 [7] | GI50 [8] [µM] | GI50 [1] [µM] | GI50 [9] [µM] | GI50 [10] [µM] | GI50 [4] [µM] | GI50 [6] [µM]
C[N+]1(C)C2CCC1CC(OC(=O)C(CO)c1ccccc1)C2 (stereo not drawn) | > 100 µM | > 100 µM | > 100 µM | > 100 | > 100 µM | > 100 µM | > 100 µM | > 100 µM | – | – | – | – | – | – | – | – | – | – | – | –
Cc1nc(Cl)c(C)c(Cl)n1 | > 100 µM | > 100 µM | > 100 µM | > 100 | > 100 µM | > 100 µM | > 100 µM | > 100 µM | > 100 µM | > 68.4 | – | – | – | – | – | – | – | – | – | –
Cc1c(N)nc([C@H](CC(N)=O)NC[C@H](N)C(N)=O)nc1C(=O)N[C@H](C(=O)N[C@H](C)[C@@H](O)[C@H](C)C(=O)N[C@H](C(=O)NCCc1nc(-c2nc(C(=O)NCCC[S+](C)C)cs2)cs1)[C@@H](C)O)C(OC1OC(CO)C(O)C(O)C1OC1OC(CO)C(O)C(OC(N)=O)C1O)c1cnc[nH]1 (stereo partly drawn) | – | 0.343 µM and 0.34 µM and 1.03 µM | 25 µM and > 100 µM | – | 23 µM and 25 µM and > 100 µM | – | 24.8 µM and 14.8 µM and 45.9 µM | 24.6 µM and > 100 µM | – | – | 0.0135 µM and 0.0134 µM | 25.3 | 2.72 µM and 2.89 µM | 5.28 µM and 1.03 µM and 5.77 µM | 27.5 | – | – | – | – | –
Cc1c2c(cc3c1[nH]c1ccccc13)C(c1ccc(F)cc1)=NCC2 | 6.47 µM | – | – | 3.12 | 6.94 µM | 5.46 µM | – | 2.46 µM | 2.8 µM | 1.57 | – | – | – | – | – | – | – | – | – | –
CN1CCN(CCCOc2ccc3ncnc(Nc4ccc(Oc5cccc(C(F)(F)F)c5)c(Cl)c4)c3c2)CC1 | 2.74 µM | 2.55 µM | 3.09 µM | 5.04 | 3.8 µM | 3.45 µM | 4.02 µM | 3.75 µM | 3.16 µM | 4.52 | 1.26 µM | 1.53 | 1.83 µM | 1.39 µM | 1.82 | 1.27 | 1.55 | 1.89 | 1.76 | 1.76
CC(=O)C1(c2ccccc2)CCCN(C)CC1 (stereo not drawn) | – | – | > 100 µM | > 100 | > 100 µM | > 100 µM | > 100 µM | > 100 µM | > 100 µM | – | – | – | – | – | – | – | – | – | – | –
CCn1cc(C(=O)O)c(=O)c2cc(F)c(N3CCN(Cn4c(O)c(N=NC(=O)c5ccncc5)c5cc(Cl)ccc54)CC3)cc21 | > 100 µM | > 100 µM | > 100 µM | > 100 | > 100 µM | > 100 µM | > 100 µM | > 100 µM | > 100 µM | 37 | – | – | – | – | – | – | – | – | – | –
COc1ccc(/C=c2/[nH]c(=O)/c(=C\c3ccc(OCc4ccccc4)cn3)[nH]c2=O)cc1 | > 100 µM | > 100 µM | > 100 µM | > 100 | > 100 µM | > 100 µM | > 100 µM | > 100 µM | > 100 µM | > 100 | – | – | – | – | – | – | – | – | – | –
O=C1c2scnc2-c2nccc3c2c1nc1ccccc13 | 4.87 µM | 2.15 µM | 0.307 µM | 2.92 | – | – | 1.7 µM | 1.69 µM | 2.48 µM | – | – | – | – | – | – | – | – | – | – | –
Cc1c(Cl)c(=O)oc2cc(OCC(=O)c3ccccc3)ccc12 | > 100 µM | > 100 µM | > 100 µM | > 100 | > 100 µM | > 100 µM | > 100 µM | > 100 µM | > 100 µM | > 100 | – | – | – | – | – | – | – | – | – | –
COC1(OC)C[C@H](C)[C@@]23O[C@]24c2cc(O)c5c(c2N[C@H]3C#C/C=C\C#C[C@]14O)C(=O)c1ccccc1C5=O | 0.0489 µM and 0.0352 µM | – | 0.139 µM and 0.175 µM | 4.2 | 0.225 µM | 0.167 µM and 0.215 µM | 0.0774 µM and 0.455 µM | 0.0789 µM and 0.0505 µM | 0.0855 µM and 0.0544 µM | 0.00105 | – | 0.0184 | – | 0.0104 µM | 0.00624 | < 0.001 | 0.0197 | < 0.001 | – | 0.00373
O=c1c2c([nH]c3nccn13)CCCC2 | > 10 µM | > 10 µM | > 10 µM | > 10 | > 10 µM | > 10 µM | > 10 µM | – | > 10 µM | > 10 | – | – | – | – | – | – | – | – | – | –
O=C1OC(c2ccccc2)=N/C1=C/c1cccs1 | > 100 µM | > 100 µM | > 100 µM | > 100 | > 100 µM | > 100 µM | – | > 100 µM | > 100 µM | 44.5 | – | – | – | – | – | – | – | – | – | –
O=C1CC(N2C(=O)/C(=C/C(Cl)=C\c3ccc([N+](=O)[O-])cc3)SC2=S)C(=O)N1c1ccc(Cl)cc1 (stereo not drawn) | – | – | 3.39 µM | > 100 | 2.97 µM | 3.89 µM | 6.34 µM | 66.5 µM | 3.03 µM | 8.86 | – | 1.65 | 1.17 µM | 2.03 µM | 2.92 | – | 1.59 | 1.45 | 5.55 | 0.508
CCCCC1Cc2cc(OC)ccc2-c2nc3cc(OC)ccc3n21 (stereo not drawn) (tested in a mixture with another compound) | 27.9 µM | 28.4 µM | 26.3 µM | 18.9 | 21.5 µM | 27.8 µM | 53.8 µM | 29.9 µM | – | 34.9 | – | – | – | – | – | – | – | – | – | –
